Source: US20260069588A1, “VEPDEGESTRANT FOR USE IN TREATING CANCER” (Arvinas Operation, Inc., priority 2022, published 2026)

How the values were obtained:
ER = ER expression in paired tumor biopsies (FIH Part A); assay type: in vivo, human; conditions: 14 paired biopsies, doses up to 500 mg QD, WT or mutant ER
[1] = MCF7/estradiol xenograft tumor growth inhibition; assay type: in vivo, mouse; conditions: in vivo, oral; mouse, 30 mg/kg; read-out: mean AUC0-24
Method: (§1) The 30 mg/kg dose was associated with a mean AUC0-24 of 5,717 ng·h/mL. The tumor ER levels were reduced by ≥94% at all doses compared to mice administered vehicle only (FIG. 3B).
(§2) The 30 mg/kg dose was associated with a mean AUC0-24 of 5,717 ng·h/mL.

MCF7/estradiol xenograft = MCF7/estradiol xenograft tumor growth inhibition; assay type: in vivo, mouse
Method: as §1, §2

ERP = ERP (Homo sapiens, UniProt Q92731); assay: Secondary pharmacodynamics binding, ERP; conditions: in vitro
[2] = Clinical Pharmacology Study: single 200 mg dose PK, all 3 cohorts; conditions: human, in vivo, oral
Method: The geometric mean T1/2 following a single 200 mg dose was approximately 40 hours under fed condition.

[3] = system: ER+/HER2− locally advanced/metastatic breast cancer; assay: FIH Study Part B (VERITAC): clinical benefit rate, PFS; assay type: in vivo, human

Sequence of ERP (Q92731 whole entry): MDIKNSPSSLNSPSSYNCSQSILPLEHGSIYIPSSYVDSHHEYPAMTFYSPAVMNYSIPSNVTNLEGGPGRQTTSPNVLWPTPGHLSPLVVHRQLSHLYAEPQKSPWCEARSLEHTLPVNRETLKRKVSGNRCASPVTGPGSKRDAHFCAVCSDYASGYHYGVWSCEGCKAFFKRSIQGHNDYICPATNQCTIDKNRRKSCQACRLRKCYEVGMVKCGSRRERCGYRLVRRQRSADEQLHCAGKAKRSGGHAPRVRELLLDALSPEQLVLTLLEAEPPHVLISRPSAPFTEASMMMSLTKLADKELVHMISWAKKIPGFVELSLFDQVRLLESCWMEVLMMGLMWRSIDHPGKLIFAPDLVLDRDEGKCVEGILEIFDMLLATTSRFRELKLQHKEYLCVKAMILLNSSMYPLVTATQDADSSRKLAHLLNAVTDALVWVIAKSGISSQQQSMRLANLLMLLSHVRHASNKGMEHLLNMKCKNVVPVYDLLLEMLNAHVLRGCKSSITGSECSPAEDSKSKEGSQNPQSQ

O=C1CC[C@H](N2Cc3cc(N4CCN(CC5CCN(c6ccc([C@@H]7c8ccc(O)cc8CC[C@@H]7c7ccccc7)cc6)CC5)CC4)ccc3C2=O)C(=O)N1 [Compound A, (S)-3-(5-(4-((1-(4-((1R,2S)-6-hydroxy-2-phenyl-1,2,3,4-tetrahydronaphthalen-1-yl)phenyl)piperidin-4-yl)methyl)piperazin-1-yl)-1-oxoisoindolin-2-yl)piperidine-2,6-dione]
ER degradation, median decrease (ER): 67%
AUC(0-t) [1]: 5720 ng·h/mL
TGI (MCF7/estradiol xenograft; 3 mg/kg PO QD 28 days): 85%
TGI (MCF7/estradiol xenograft; 10 mg/kg PO QD 28 days): 98%
TGI (MCF7/estradiol xenograft; 30 mg/kg PO QD 28 days): 124%
binding (ERP): bound
half-life ([2]; fed, read-out: geometric mean T1/2 (converted)): ~40 h
Tmax ([2]; read-out: median Tmax across cohorts): 6 to 8 h
median progression-free survival ([3]; 200 mg QD, all evaluable, 95% CI 1.8-7.8): 3.5 months
PFS ([3]; ITT (n=71)): 3.7 months
